Ends that are not written are not given here. Peptide text beside a SMILES is read from it. * marks the point of attachment. MTS‑TFMD = trifluoromethyl phenyl diazirine photocrosslinker tag, disulfide-linked to Cys via MTS; X2 = CC1(CCS*)N=N1
B1: OmpA: E. coli β-barrel outer membrane protein, substrate of the periplasmic chaperone Skp (protein, UniProt P0A910 22-346, looked up)
Outer membrane protein A: APKDNTWYTGAKLGWSQYHDTGFINNNGPTHENQLGAGAFGGYQVNPYVGFEMGYDWLGRMPYKGSVENGAYKAQGVQLTAKLGYPITDDLDIYTRLGGMVWRADTKSNVYGKNHDTGVSPVFAGGVEYAITPEIATRLEYQWTNNIGDAHTIGTRPDNGMLSLGVSYRFGQGEAAPVVAPAPAPAPEVQTKHFTLKSDVLFNFNKATLKPEGQAALDQLYSQLSNLDPKDGSVVVLGYTDRIGSDAYNQGLSERRAQSVVDYLISKGIPADKISARGMGESNPVTGNTCDNVKQRAALIDCLAPDRRVEIEVKGIKDVVTQPQA

Key:
MCL-1 = target: T1, MCL-1 (Homo sapiens, UniProt Q07820); assay: Photo-crosslinking of labelled BID80-102 peptides to MCL-1, SDS-PAGE band intensity; conditions: 20 μM labelled peptide + 20 μM MCL-1, TBS pH 7.6, 365 nm UV LED, 1 min, SDS-PAGE band intensity of crosslinked vs non-crosslinked MCL-1, value ± SD of three repeats
T1 construct: made in house
T1 sequence (Q07820 whole entry): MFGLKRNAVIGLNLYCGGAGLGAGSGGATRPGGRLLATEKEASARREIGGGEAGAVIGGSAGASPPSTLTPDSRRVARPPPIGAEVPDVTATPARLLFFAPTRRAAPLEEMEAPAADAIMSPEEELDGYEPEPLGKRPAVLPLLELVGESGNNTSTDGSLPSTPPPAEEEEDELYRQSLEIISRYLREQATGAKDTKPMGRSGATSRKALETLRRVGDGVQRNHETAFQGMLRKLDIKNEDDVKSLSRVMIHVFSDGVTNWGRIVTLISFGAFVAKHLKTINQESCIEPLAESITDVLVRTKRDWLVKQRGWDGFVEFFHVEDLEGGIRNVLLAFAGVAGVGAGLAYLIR
Procedure: Cross-linking experiments
For all irradiation methods, samples were prepared in the following way. For crosslinking of MCL-1/BID80-102, 20 μL of a solution containing MTS-diazirine or MTS-TFMD labelled BID80-102 peptide (20 μM) and MCL-1 (20 μM) in buffer 50 mM Tris-HCl, 150 mM NaCl (TBS) pH 7.6 was prepared. […]
This was then placed under a covered LF-206.LS 6 W 365 nm lamp (Uvitec) at a distance of 12 mm from the source for different times up to 30 min. For UV LED chip experiments, acrylic chip chambers were washed with TBS pH 7.6 buffer and 33 µL of sample was added. These were then clamped into the chip holder and irradiated with the 365 nm LED for up to 30 s. A pipette was used to remove the sample from the chip via the lower filling hole. For UV LED tube experiments, 30-130 µL of sample was added to a thin-walled PCR tube and placed inside a 0.5 mL microfuge tube which itself was in a 1.5 mL microfuge tube that had been wrapped in aluminium foil (to reflect the UV irradiation within the containers). Samples were irradiated with the 365 nm LED for 30 s. To crosslink MCL-1 BID80-102, samples were irradiated using this apparatus for 1 min.
Separation and enrichment of cross-linked products
To separate and/or enrich crosslinked samples three methods were used as described in the main text.
Table S1: Affinity (EC50) of labelled BID80-102 peptides to MCL-1 as determined by competition fluorescence anisotropy assay. Crosslinking efficiency of labelled BID80-102 peptides to MCL-1 based on the SDS-PAGE band intensity of crosslinked and non-crosslinked […]
The values and standard deviations are results of three repeats. n.d = not determined as binding was too weak to enable an accurate fit to be obtained.
BID peptide EC50 for affinity to MCL-1 (nM) Crosslinked Mcl-1 (%)

Skp = conditions: read-out: KD of Skp/OmpA complex; cited from earlier work

| Molecule | Crosslinked Mcl-1 (crosslinking efficiency) (MCL-1; SD) [%] | further results |
| --- | --- | --- |
| CC[C@H](C)[C@H](NC(=O)[C@H](CC(N)=O)NC(=O)[C@H](CCCNC(=N)N)NC(=O)[C@@H](NC(=O)[C@@H](NC(=O)[C@H](CC(=O)O)NC(=O)[C@H](CCC(=O)O)NC(C)=O)[C@@H](C)CC)[C@@H](C)CC)C(=O)N[C@@H](C)C(=O)N[C@@H](CCCNC(=N)N)C(=O)N[C@@H](Cc1c[nH]cn1)C(=O)N[C@@H](CC(C)C)C(=O)N[C@@H](C)C(=O)N[C@@H](CCC(N)=O)C(=O)N[C@@H](CSSCCC1(C)N=N1)C(=O)NCC(=O)N[C@@H](CC(=O)O)C(=O)N[C@@H](CO)C(=O)N[C@@H](CCSC)C(=O)N[C@@H](CC(=O)O)C(=O)N[C@@H](CCCNC(=N)N)C(=O)N[C@@H](CO)C(=O)N[C@H](C(=O)N[C@@H](Cc1c[nH]c2ccccc12)C(N)=O)[C@@H](C)CC [MTS-diazirine labelled V93C] (Ac-EDIIRNIARHLAQC(X2)GDSMDRSIW-NH2) | 9 ± 3 | – |
| CC[C@H](C)[C@H](NC(=O)[C@H](CC(N)=O)NC(=O)[C@H](CCCNC(=N)N)NC(=O)[C@@H](NC(=O)[C@@H](NC(=O)[C@H](CC(=O)O)NC(=O)[C@H](CCC(=O)O)NC(C)=O)[C@@H](C)CC)[C@@H](C)CC)C(=O)N[C@@H](C)C(=O)N[C@@H](CCCNC(=N)N)C(=O)N[C@@H](Cc1c[nH]cn1)C(=O)N[C@@H](CC(C)C)C(=O)N[C@@H](C)C(=O)N[C@@H](CCC(N)=O)C(=O)N[C@H](C(=O)NCC(=O)N[C@@H](CC(=O)O)C(=O)N[C@@H](CO)C(=O)N[C@@H](CCSC)C(=O)N[C@@H](CC(=O)O)C(=O)N[C@@H](CCCNC(=N)N)C(=O)N[C@@H](CO)C(=O)N[C@H](C(=O)N[C@@H](Cc1c[nH]c2ccccc12)C(N)=O)[C@@H](C)CC)C(C)C [WT, reference compound] | – | Crosslinked Mcl-1 (crosslinking efficiency) (MCL-1): 0% |
| MTS-TMFD labelled V93C: single Cys variant V93C of BID80–102 tagged with MTS-TFMD (EDIIRNIARHLAQC(MTS‑TFMD)GDSMDRSIP; UniProt P55957 80-102, looked up, fragment V93C) | 40 ± 8 | – |
| B1 | – | Kd (Skp): 22 ± 16 nM |

Reference: article PMC6348423, “Rapid Mapping of Protein Interactions Using Tag‐Transfer Photocrosslinkers” (Angewandte Chemie (International Ed. in English), 2018)
